Among the targets are Mu-type opioid receptor (Homo sapiens, UniProt P35372); Histamine H3 receptor (Homo sapiens, UniProt Q9Y5N1); D(1A) dopamine receptor (Homo sapiens, UniProt P21728).
Assay [1] deals with T1, Alpha-1A adrenergic receptor (Homo sapiens, UniProt P35348).
T1 sequence (P35348 whole entry): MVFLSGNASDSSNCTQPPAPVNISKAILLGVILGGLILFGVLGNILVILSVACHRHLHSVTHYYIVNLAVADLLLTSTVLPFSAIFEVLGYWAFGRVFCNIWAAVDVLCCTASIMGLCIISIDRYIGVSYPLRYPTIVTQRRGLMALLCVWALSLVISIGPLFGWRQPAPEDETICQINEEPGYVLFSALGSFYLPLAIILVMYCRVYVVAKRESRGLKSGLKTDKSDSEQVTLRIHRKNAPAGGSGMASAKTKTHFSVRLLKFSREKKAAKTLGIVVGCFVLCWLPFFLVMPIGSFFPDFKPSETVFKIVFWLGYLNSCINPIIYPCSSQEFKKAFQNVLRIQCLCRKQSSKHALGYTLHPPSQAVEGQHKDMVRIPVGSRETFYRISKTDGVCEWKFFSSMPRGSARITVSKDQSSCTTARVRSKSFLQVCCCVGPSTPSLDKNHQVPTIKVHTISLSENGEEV
The assay is classed as functional, cell-based.

Assay [2] addresses T2, 5-hydroxytryptamine receptor 1A (Homo sapiens, UniProt P08908).
T2 sequence (P08908 whole entry): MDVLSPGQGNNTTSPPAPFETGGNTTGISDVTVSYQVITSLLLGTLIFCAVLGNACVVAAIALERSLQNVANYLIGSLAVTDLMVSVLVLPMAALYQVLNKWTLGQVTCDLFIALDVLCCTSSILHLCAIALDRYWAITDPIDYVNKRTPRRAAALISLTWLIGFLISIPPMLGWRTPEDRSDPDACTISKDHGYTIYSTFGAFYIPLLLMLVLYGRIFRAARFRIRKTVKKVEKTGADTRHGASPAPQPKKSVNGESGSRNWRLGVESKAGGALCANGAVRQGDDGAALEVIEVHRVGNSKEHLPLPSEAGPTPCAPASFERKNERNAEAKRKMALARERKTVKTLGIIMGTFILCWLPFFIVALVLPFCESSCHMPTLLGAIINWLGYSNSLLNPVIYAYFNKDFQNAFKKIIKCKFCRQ

The target of assay [3] is Sodium-dependent noradrenaline transporter (Homo sapiens, UniProt P23975).
Sodium-dependent noradrenaline transporter, sequence (P23975 whole entry): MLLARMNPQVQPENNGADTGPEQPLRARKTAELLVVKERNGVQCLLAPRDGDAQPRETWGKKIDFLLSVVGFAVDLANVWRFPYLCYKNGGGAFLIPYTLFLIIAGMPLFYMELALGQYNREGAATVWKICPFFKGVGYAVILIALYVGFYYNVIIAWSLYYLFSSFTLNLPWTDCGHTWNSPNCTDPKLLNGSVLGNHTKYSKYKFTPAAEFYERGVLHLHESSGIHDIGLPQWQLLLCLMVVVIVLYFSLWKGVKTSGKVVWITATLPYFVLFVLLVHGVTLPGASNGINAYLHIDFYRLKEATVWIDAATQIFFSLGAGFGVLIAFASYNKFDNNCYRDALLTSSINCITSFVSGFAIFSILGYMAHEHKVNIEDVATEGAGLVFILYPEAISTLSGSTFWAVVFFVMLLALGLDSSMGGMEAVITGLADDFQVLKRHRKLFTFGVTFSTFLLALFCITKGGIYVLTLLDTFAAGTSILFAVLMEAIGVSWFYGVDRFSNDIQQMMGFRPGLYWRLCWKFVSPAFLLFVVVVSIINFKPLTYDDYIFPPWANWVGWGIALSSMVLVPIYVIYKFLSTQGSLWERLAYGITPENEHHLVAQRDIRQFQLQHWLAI
The target in a further assay is T3, Thromboxane A2 receptor (Homo sapiens, UniProt P21731).
T3 sequence (P21731 whole entry): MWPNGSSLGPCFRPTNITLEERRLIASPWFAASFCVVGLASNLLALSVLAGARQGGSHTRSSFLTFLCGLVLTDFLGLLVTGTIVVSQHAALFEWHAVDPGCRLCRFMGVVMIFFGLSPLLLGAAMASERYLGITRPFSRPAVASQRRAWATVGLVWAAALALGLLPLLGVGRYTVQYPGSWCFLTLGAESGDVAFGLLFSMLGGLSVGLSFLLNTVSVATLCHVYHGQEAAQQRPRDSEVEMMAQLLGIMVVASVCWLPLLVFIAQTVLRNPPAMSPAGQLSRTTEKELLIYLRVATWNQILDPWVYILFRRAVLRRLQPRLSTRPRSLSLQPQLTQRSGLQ
Format: functional, cell-based.

The next assay has as its target Acetylcholinesterase (Homo sapiens, UniProt P22303). The assay is classed as functional.
Assay [4] deals with Vascular endothelial growth factor receptor 2 (Homo sapiens, UniProt P35968). The assay is classed as functional.
Vascular endothelial growth factor receptor 2, sequence (P35968 whole entry): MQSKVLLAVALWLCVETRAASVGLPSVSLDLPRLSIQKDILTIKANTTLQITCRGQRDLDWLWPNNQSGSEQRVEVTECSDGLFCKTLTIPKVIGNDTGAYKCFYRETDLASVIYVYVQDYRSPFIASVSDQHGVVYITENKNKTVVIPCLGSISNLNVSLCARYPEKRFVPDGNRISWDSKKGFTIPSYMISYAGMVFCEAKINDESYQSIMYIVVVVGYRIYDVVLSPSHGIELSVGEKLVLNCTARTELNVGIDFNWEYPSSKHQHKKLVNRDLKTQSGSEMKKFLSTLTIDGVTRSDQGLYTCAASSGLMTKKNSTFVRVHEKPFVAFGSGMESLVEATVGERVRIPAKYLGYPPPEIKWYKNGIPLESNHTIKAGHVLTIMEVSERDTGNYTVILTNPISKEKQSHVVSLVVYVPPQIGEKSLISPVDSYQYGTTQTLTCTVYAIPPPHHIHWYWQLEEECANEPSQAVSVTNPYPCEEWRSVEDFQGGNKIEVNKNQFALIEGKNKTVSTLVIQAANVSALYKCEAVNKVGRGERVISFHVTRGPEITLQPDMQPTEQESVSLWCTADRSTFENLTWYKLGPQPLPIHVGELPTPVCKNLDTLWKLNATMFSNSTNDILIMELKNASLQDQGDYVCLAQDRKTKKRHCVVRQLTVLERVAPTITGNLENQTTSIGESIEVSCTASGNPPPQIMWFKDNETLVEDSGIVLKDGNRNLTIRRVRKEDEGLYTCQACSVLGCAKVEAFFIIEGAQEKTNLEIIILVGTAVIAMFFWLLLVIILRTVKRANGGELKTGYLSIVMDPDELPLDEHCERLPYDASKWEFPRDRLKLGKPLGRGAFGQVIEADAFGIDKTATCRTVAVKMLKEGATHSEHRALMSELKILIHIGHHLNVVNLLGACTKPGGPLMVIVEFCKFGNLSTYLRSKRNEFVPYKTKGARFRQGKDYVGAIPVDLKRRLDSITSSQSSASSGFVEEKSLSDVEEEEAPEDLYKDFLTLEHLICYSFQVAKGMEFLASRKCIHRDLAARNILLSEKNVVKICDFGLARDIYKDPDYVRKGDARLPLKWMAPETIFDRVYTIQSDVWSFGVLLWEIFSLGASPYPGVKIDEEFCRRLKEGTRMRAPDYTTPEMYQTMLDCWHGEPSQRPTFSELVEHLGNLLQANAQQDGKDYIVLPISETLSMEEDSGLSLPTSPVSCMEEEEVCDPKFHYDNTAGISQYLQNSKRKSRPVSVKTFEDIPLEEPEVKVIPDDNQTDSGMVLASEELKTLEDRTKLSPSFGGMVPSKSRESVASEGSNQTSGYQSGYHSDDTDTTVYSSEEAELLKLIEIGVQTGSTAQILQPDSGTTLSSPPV
Assay [5] deals with T1, Alpha-1A adrenergic receptor. The assay is classed as functional, cell-based. The source holds these as a separate data set.
Assay [6] addresses T4, Amine oxidase [flavin-containing] A (Homo sapiens, UniProt P21397).
T4 sequence (P21397 whole entry): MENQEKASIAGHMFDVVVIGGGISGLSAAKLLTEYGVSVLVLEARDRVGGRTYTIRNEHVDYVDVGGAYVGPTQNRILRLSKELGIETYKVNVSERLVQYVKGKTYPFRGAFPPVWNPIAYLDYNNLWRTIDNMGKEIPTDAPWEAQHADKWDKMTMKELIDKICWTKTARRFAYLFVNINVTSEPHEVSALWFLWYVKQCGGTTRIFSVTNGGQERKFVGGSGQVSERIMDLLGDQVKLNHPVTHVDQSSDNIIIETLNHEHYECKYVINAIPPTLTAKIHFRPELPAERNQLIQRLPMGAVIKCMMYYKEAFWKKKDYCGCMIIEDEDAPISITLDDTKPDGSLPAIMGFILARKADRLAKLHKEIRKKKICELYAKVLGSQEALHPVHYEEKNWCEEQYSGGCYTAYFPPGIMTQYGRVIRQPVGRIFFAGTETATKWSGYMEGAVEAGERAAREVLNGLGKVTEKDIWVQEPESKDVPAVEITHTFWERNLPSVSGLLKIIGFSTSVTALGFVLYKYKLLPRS
The assay is classed as functional.

Assay [7] deals with Sodium-dependent dopamine transporter (Homo sapiens, UniProt Q01959).
Sodium-dependent dopamine transporter, sequence (Q01959 whole entry): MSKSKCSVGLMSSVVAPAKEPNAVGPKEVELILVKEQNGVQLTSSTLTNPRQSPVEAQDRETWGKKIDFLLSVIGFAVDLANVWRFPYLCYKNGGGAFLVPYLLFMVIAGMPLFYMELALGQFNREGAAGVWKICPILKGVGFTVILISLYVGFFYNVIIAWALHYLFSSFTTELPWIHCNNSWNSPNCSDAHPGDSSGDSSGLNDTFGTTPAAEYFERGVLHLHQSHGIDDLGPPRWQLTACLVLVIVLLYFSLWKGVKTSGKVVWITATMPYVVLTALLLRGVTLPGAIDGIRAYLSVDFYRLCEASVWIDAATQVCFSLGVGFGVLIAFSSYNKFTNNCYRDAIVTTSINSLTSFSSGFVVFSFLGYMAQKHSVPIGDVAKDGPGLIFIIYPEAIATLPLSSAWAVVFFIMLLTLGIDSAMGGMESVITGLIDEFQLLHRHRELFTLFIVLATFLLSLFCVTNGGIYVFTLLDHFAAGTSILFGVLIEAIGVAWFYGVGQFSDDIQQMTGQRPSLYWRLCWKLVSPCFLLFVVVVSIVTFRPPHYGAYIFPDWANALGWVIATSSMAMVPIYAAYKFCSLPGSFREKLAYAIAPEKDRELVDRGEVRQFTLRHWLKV
The target in assay [8] is Prostaglandin G/H synthase 1 (Homo sapiens, UniProt P23219). Format: functional.
Prostaglandin G/H synthase 1, sequence (P23219 whole entry): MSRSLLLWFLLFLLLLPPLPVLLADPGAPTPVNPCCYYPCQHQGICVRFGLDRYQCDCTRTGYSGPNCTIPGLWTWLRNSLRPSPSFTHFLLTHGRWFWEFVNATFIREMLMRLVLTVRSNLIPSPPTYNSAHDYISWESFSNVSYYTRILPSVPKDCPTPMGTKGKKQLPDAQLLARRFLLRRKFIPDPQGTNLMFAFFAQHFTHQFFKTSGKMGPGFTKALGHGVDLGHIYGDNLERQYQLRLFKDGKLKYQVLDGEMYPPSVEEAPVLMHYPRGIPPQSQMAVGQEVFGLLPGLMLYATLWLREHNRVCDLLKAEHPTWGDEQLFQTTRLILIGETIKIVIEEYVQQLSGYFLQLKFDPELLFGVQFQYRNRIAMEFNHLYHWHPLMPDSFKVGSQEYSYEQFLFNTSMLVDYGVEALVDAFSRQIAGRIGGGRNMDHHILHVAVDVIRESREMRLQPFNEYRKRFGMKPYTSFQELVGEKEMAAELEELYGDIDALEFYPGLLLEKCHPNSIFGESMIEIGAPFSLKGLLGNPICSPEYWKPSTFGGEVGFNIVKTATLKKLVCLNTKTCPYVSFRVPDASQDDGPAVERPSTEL

Results on eleven compounds are retold here after ChEMBL document CHEMBL5291721, “A preclinical secondary pharmacology resource illuminates target-adverse drug reaction associations of marketed drugs” (Nat Commun, 2023).

In general, AC50 refers to the concentration at which the activity in the assay is half-maximal. Read a high AC50 as activity only at high concentration.
Note: assay procedure not described here.

Acetylcholinesterase, sequence (P22303 whole entry): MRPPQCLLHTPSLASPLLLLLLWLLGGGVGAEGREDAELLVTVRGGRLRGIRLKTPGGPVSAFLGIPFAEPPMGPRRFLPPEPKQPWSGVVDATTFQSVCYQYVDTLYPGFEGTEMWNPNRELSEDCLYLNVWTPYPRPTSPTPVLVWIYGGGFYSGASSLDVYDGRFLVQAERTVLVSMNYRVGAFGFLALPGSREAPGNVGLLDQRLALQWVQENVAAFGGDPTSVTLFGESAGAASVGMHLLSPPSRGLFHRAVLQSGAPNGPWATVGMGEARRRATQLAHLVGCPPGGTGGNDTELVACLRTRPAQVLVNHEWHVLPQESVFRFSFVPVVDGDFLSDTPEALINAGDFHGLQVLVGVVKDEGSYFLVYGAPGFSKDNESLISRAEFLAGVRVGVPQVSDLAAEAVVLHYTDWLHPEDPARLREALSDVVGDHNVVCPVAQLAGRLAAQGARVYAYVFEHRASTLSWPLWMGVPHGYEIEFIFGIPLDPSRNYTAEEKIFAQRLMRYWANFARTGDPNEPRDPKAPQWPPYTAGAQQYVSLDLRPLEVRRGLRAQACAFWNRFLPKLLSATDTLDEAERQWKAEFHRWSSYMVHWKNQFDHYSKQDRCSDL
Histamine H3 receptor, sequence (Q9Y5N1 whole entry): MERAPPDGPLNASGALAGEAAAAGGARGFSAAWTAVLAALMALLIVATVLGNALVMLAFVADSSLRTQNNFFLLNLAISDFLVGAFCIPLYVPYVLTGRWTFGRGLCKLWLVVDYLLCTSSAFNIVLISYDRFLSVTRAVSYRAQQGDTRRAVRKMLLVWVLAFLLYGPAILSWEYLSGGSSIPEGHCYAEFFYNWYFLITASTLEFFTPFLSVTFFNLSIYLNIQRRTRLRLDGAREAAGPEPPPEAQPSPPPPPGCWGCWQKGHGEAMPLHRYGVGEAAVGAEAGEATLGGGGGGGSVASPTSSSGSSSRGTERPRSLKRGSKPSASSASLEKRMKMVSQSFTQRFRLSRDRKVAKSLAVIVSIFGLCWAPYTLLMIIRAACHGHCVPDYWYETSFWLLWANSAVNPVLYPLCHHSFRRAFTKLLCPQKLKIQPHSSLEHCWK
Mu-type opioid receptor, sequence (P35372 whole entry): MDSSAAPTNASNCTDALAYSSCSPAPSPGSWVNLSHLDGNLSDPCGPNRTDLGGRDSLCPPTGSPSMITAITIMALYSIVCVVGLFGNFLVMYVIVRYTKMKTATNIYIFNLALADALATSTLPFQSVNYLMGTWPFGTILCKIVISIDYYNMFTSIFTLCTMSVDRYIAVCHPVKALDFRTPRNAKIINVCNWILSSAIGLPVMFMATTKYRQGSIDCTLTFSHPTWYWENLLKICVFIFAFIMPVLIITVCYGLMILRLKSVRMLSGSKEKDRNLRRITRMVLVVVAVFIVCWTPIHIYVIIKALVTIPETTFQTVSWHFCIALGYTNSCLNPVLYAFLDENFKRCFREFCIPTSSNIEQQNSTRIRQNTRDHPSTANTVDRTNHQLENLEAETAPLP

`CC1=C(/C=C/C(C)=C\C=C\C(C)=C\C(=O)O)C(C)(C)CCC1` [ALITRETINOIN]: the AC50 (in assay [1]; in [2]; in assay [3]; at Mu-type opioid receptor; at Thromboxane A2 receptor; at Acetylcholinesterase) was more than 30 µM throughout. Moreover, the AC50 (at Histamine H3 receptor; at D(1A) dopamine receptor; in assay [4]; in assay [5]; in assay [6]; in [7]) was more than 30 µM each time.

Turning to `CCn1c(=O)c2c(nc(/C=C/c3ccc(OC)c(OC)c3)n2C)n(CC)c1=O` [ISTRADEFYLLINE], the AC50 is more than 30 µM in assay [1]; 10.5 µM in assay [2]; more than 30 µM in assay [3]; more than 30 µM at Mu-type opioid receptor; more than 30 µM at Thromboxane A2 receptor; more than 30 µM on Acetylcholinesterase. Besides, the AC50 was more than 30 µM at Histamine H3 receptor; more than 30 µM in assay [8]; more than 30 µM on D(1A) dopamine receptor; more than 10 µM in [4]; more than 30 µM in [5]; more than 30 µM in assay [6]. The compound also registered an AC50 in assay [7] of more than 30 µM.

`NS(=O)(=O)c1cc2c(cc1Cl)NC(C(Cl)Cl)NS2(=O)=O` (stereo unspecified) [TRICHLORMETHIAZIDE]: the AC50 (in [1]; in [2]; in assay [3]; at Mu-type opioid receptor; at Thromboxane A2 receptor; on Acetylcholinesterase) was more than 30 µM each time. Besides, the AC50 (on Histamine H3 receptor; in assay [8]; at D(1A) dopamine receptor; in [4]; in assay [5]; in assay [6]) was more than 30 µM throughout. In [7], the AC50 is more than 30 µM.

For `Cc1ncc(CO)c(CO)c1O` [PYRIDOXINE], the AC50 (in assay [1]; in assay [2]; in [3]; at Mu-type opioid receptor; at Thromboxane A2 receptor; on Acetylcholinesterase) was more than 30 µM throughout. Also, the AC50 (on Histamine H3 receptor; in [8]; at D(1A) dopamine receptor; in assay [4]; in [5]; in assay [6]) was more than 30 µM throughout. In addition, the AC50 in assay [7] is more than 30 µM.

With `CC(C)NC[C@H](O)COc1ccc(CCOCC2CC2)cc1` [LEVOBETAXOLOL], the AC50 (in assay [1]; in [2]; in assay [3]; on Mu-type opioid receptor; at Thromboxane A2 receptor; at Acetylcholinesterase) was more than 30 µM in each case. The AC50 (at Histamine H3 receptor; in assay [8]; at D(1A) dopamine receptor; in assay [4]; in assay [5]; in assay [6]) was more than 30 µM in each case. For the same compound, the AC50 in assay [7] is more than 30 µM.

Turning to `N[C@@H](Cc1ccc(O)cc1)C(=O)O` [TYROSINE], the AC50 (in [1]; in assay [2]; in assay [3]; at Mu-type opioid receptor; on Thromboxane A2 receptor; at Acetylcholinesterase) was more than 30 µM throughout. Besides, the AC50 (at Histamine H3 receptor; in assay [8]; on D(1A) dopamine receptor; in assay [4]; in assay [5]; in assay [6]) was more than 30 µM throughout. The compound further showed an AC50 in assay [7] of more than 30 µM.

`CC(=O)OCC(=O)[C@@]1(OC(C)=O)[C@@H](C)C[C@H]2[C@@H]3C[C@H](F)C4=CC(=O)C=C[C@]4(C)[C@@]3(F)[C@@H](O)C[C@@]21C` [DIFLORASONE DIACETATE]: the AC50 (in assay [1]; in [2]; in [3]; at Mu-type opioid receptor; on Thromboxane A2 receptor; at Acetylcholinesterase) was more than 30 µM throughout. In addition, the AC50 (on Histamine H3 receptor; in [8]; on D(1A) dopamine receptor; in assay [4]; in assay [5]; in assay [6]) was more than 30 µM throughout. For the same compound, the AC50 in assay [7] was more than 30 µM.

Consider `C#C[C@]1(OC(C)=O)CC[C@H]2[C@@H]3CCC4=CC(=O)CC[C@@H]4[C@H]3CC[C@@]21C` [NORETHINDRONE ACETATE], for which the AC50 in [1] was more than 30 µM; in [2], more than 30 µM; in assay [3], 19.1 µM; on Mu-type opioid receptor, more than 30 µM; at Thromboxane A2 receptor it was more than 30 µM; at Acetylcholinesterase it was more than 30 µM. The AC50 at Histamine H3 receptor is more than 30 µM; in [8] it was more than 30 µM; on D(1A) dopamine receptor it was more than 30 µM; in assay [4], more than 30 µM; in assay [5], 5.91 µM; in [6], more than 30 µM. Besides, in assay [7], the AC50 was more than 30 µM.

Take `O=c1[nH]c(=O)n([C@H]2C[C@H](O)[C@@H](CO)O2)cc1/C=C/Br` [BRIVUDINE]: the AC50 (in assay [1]; in assay [2]; in assay [3]; at Mu-type opioid receptor; at Thromboxane A2 receptor; at Acetylcholinesterase) was more than 30 µM each time. Besides, the AC50 (at Histamine H3 receptor; in assay [8]; at D(1A) dopamine receptor; in [4]; in [5]; in assay [6]) was more than 30 µM in each case. Also, in assay [7], the AC50 is more than 30 µM.

As for `CCOC1O[C@H]([C@@H](COCc2ccccc2)OCc2ccccc2)[C@H](OCc2ccccc2)[C@H]1O` (stereo partly specified) [TRIBENOSIDE], the AC50 (in assay [1]; in assay [2]; in [3]; on Mu-type opioid receptor; on Thromboxane A2 receptor; at Acetylcholinesterase) was more than 30 µM in each case. Also, the AC50 at Histamine H3 receptor is more than 30 µM; in assay [8], more than 30 µM; on D(1A) dopamine receptor, more than 30 µM; in assay [4], more than 30 µM; in assay [5], 15.2 µM; in [6], more than 30 µM. The compound also returned an AC50 in assay [7] of more than 30 µM.

Turning to `CC1=C(/C=C/C(C)=C/C=C/C(C)=C\C(=O)O)C(C)(C)CCC1` [ISOTRETINOIN], the AC50 (in assay [1]; in [2]; in [3]; on Mu-type opioid receptor; on Thromboxane A2 receptor; on Acetylcholinesterase) was more than 30 µM throughout. The AC50 (on Histamine H3 receptor; at D(1A) dopamine receptor; in assay [4]; in assay [5]; in [6]; in assay [7]) was more than 30 µM in each case.
